Data set [1] has as its system naïve mice without tumors. Kind of data set: CAR-T cells with EC17 in naïve mice without tumors (Example 25). Format: in vivo. The note with it: 500 nmoles/kg three times per week. The protocol:
Five million CAR-T cells were injected (i.v.) into naïve mice without tumors. 500 nmoles/kg EC17 was administrated three times per week. Mice were monitored for 5 weeks, and some were euthanized every week to evaluate organs.

The test system of data set [2] is MDA-MB-231 tumors. In words: EC17 pre-painting combined with delayed second EC17 dose (Example 30). It is filed as in vivo, mice. As for the experimental part:
FITC-CAR-T related toxicity (e.g. sCRS) can be reduced by the combination of EC17 pre-painting and the delay of EC17 dosing post CAR-T administration. To explore strategies to control therapy-related toxicity, the combination of the EC17 pre-painting and EC17 dosing schedule optimization was evaluated. Mice bearing MDA-MB-231 tumors (100-200 mm3) were divided into three groups. Mice in group #1 (no EC17 pre-painting) were administered with 8 million FITC-CAR-T cells through the tail vein, and 500 nmol/kg EC17 was then dosed as a single dose per week (at days 2, 9, 16, etc.) post CAR-T administration. Mice in group #2 (EC17 4 hour pre-painting) were pre-painted with 500 nmol/kg EC17 4 hours before the administration of 8 million CAR-T cells, and 500 nmol/kg EC17 was then dosed as a single dose per week post CAR-T administration. Mice in group #3 (EC17 4 hour pre-painting+delayed second EC17 dose) were also pre-painted with 500 nmol/kg EC17 4 hours before the administration of 8 million CAR-T cells, but the second dose of 500 nmol/kg EC17 was postponed until 7 days after CAR-T administration, and the single dose per week schedule of EC17 dosing was then followed. Three days after CAR-T administration, mice in the three groups were evaluated by visual observation.

In a further data set the test system is MDA-MB-231 cells. In words: Bridge dose versus lysis and IFNγ release in MDA-MB-231 cell cultures (Example 43). Format: cell-based, human. As to conditions: 0.001 to 100,000 nM, Effector:Tumor 5:1. The protocol: FR positive cancer cell lines (e.g. KB or MDA-MB-231 cells) were seeded at density of 10^4 cells/100 μl media into 96 well plates and grown overnight. Anti-fluorescein CAR T cells were added to each well in the absence or presence of bridge molecules. After co-incubation for 6-24 hours, plates were centrifuged at 350×g for 10 min to remove debris and supernatants were analyzed for lactate dehydrogenase release (cell death analysis) using Pierce™ LDH cytotoxicity assay kit (Thermo Fisher Scientific, MA) and interferon γ (IFNγ) levels using human IFNγ ELISA kit (Biolegend, CA), while pellets were either evaluated for CAR T cell activation by staining with anti-human CD69 APC (Clone: FN50, Biolegend, CA) or examined for CAR T cell proliferation by culturing for 5 days in TexMACS™ medium (Miltenyi Biotech Inc, CA) containing 1% penicillin and streptomycin sulfate and quantitating by flow cytometry using the intrinsic GFP fluorescence and staining with anti-human CD3 APC antibody (Clone:HIT3a, Biolegend, CA).
Although a highly elevated and prolonged CRS can often lead to patient death, some level of CRS has been viewed as desirable, since patients displaying no evidence of CRS are not commonly observed to respond to CAR T cell therapies. […]

For the next data set, the system named is SKOV-3. In words: FITC-CAR-T/EC17 therapy, SKOV-3 model (Example 28). As to conditions: 500 nmol/kg weekly, 5 million FITC-CAR-T. Format: in vivo, NSG mice. As for the experimental part: To test whether FITC-CAR-T/EC17 therapy has anti-tumor activity in various FR+ tumor models, NSG mice were subcutaneously implanted with MDA-MB-231 (triple negative breast cancer cell line), OV90 (human ovarian cancer cell line), KB (human cervical adenocarcinoma cell line), SKOV-3 (human ovarian carcinoma cell line), or HEK293-FRa (HEK293 stably-transfected with human FRa). When tumor size reached […], one dose of EC17 at 500 nmol/kg of body weight was injected by tail vein followed with administering of 5 million FITC-CAR-T cells 4 hours later. 500 nmol/kg EC17 was dosed once every week after the initial EC17/CAR-T administration (about day 7), tumor size and body weights of mice were monitored three times per week. The EC17 dosing days were labeled as green dashed vertical lines in the graph. […] EC17 dose-dependent temporary body weight loss was also observed in all tumor bearing mice, indicating the activation of CAR-Ts is EC17-dependent in these mice.

Data set [3] relates to MDA-MB-231 tumors. Kind of data set: FITC-CAR-T cell proliferation in vivo versus EC17 dose (Example 36). Set-up: species or system NSG mice. The protocol: To evaluate whether the bridge dose can control CAR-T proliferation in vivo, NSG mice bearing MDA-MB-231 tumors (250-500 mm3) were divided into 4 groups and dosed with 0, 5, 50, or 500 nmol/kg of body weight of EC17 respectively (as shown in FIG. 40A). Four hours later, the four groups were administered with 5 million FITC-CAR-T cells which were cultured in vitro for 11 days, while one group of mice pre-dosed with 500 nmol/kg EC17 was not dosed with CAR-T cells and was used as a “No CAR-T control”. […] Blood samples were then collected 16 hours post the second EC17 dose and analyzed for CAR-T numbers in blood circulation (FIG. 40B). […] The interpretation of this finding is that CAR-T cells proliferated more in mice dosed with 50 or 500 nmol/kg EC17 than in mice dosed with 5 nmol/kg EC17, so that the CAR-T counts in blood circulation were higher.
To further confirm that FITC-CAR-T proliferation is EC17 dose-dependent, we also evaluated CAR-T proliferation in vivo when CAR-Ts were given more time to settle down and proliferate. For this purpose, we examined CAR-T cell number in mice which were administered with CAR-T cells six days earlier and four doses of EC17 had been given to boost CAR-T proliferation in vivo. NSG mice bearing MDA-MB-231 tumors (250-500 mm3) were divided into 4 groups and dosed with 0, 5, 50, or 500 nmol/kg of body weight of EC17 respectively (as shown in FIG. 41A). Four hours later, all mice were administered with 5 million FITC-CAR-T cells which were cultured in vitro for 18 days. Various levels of EC17 were then dosed at days 1, 3, 5 post CAR-T administering to boost CAR-T proliferation. Mouse blood samples were collected 24 hours post the last EC17 dose, CAR-T cells in blood were stained with anti-human CD45 antibody and counted by FACS.

Turning to `Nc1nc2ncc(CNc3ccc(C(=O)NC(CCC(=O)NCCNC(=S)Nc4ccc(-c5c6ccc(=O)cc-6oc6cc(O)ccc56)c(C(=O)O)c4)C(=O)O)cc3)nc2c(=O)[nH]1` (centres unmarked) [EC17, FITC-Folate], the “CAR-T cell proliferation (blood count, spleen size)” value in data set [1] is “did not proliferate”. The body weight entry in data set [1] (5 million CAR-T, 5 weeks) was “No apparent body weight loss”. Further, in the data set with MDA-MB-231 tumors [2] (all three groups), the anti-tumor outcome is “complete responses”. Moreover, the “sCRS by visual observation” value with MDA-MB-231 tumors [2] (group #1 no pre-painting, three days after CAR-T) is “the worst sCRS”; with MDA-MB-231 tumors [2] (group #2 EC17 4 hour pre-painting), “sCRS but less severe”; in the data set on MDA-MB-231 tumors [2] (group #3 EC17 4 hour pre-painting + delayed second EC17 dose), “didn't show sCRS”. For the same molecule, the “bridge dose with little effect on tumor cell lysis” value in the data set with MDA-MB-231 cells is recorded as “below 0.01 nM”. Also, in the data set on SKOV-3, the tumor response entry is “stable disease”. The “CAR-T cells in blood versus 0 nmol/kg EC17” value in the data set with MDA-MB-231 tumors [3] (5 nmol/kg, day 3) is “less CAR-T cells in their blood circulation”. In the data set on MDA-MB-231 tumors [3] (50 or 500 nmol/kg, day 3), the “CAR-T cells in blood” value is “more CAR-T cells in their blood circulation”. Besides, the “EC17 dose with the highest CAR-T count” value with MDA-MB-231 tumors [3] (day 6, four EC17 doses) was found to be 50 nmol/kg.

The values above are taken from patent US11759480B2, “Compositions and methods for CAR T cell therapy” (ENDOCYTE, INC., priority 2017, dated 2023).
